Assay results as given in patent US9540391B2, “Isomannide derivatives as inhibitors of soluble epoxide hydrolase” (SANOFI, priority 2013, dated 2017).
Counter-ions that a name gives are not always drawn.

biological target: T1, recombinant sEH (Homo sapiens, UniProt P34913); experiment: biochemical screening assay for inhibition of soluble epoxide hydrolase (fluorometric, Phome substrate)
T1 construct: made in house; host or cells: Sf9 insect cells
T1 sequence (P34913 1-555): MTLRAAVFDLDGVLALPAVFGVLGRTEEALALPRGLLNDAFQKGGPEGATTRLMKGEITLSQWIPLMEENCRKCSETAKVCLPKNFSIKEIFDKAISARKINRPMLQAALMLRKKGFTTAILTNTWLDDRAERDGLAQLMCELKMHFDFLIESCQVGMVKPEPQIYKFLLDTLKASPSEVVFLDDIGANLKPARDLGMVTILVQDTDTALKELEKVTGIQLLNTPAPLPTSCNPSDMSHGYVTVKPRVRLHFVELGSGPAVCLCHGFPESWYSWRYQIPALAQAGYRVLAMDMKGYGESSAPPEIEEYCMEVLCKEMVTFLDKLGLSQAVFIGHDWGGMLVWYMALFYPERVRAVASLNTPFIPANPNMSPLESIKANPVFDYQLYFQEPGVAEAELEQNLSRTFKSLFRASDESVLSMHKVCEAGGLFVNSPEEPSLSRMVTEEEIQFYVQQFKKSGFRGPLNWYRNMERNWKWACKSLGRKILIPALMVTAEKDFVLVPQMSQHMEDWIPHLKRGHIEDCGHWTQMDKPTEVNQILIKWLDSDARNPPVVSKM
Description: The ability of the compounds of the formula I to inhibit soluble epoxide hydrolase can be determined as follows:
Compounds were tested in a biochemical screening assay using recombinant sEH purified from Sf9 insect cells and an artificial substrate, (3-phenyl-oxiranyl)-acetic acid cyano-(6-methoxy-naphtalen-2-yl)-methyl ester, Phome. The biochemical assay was performed in analogy to a fluorometric method described in the literature (P. D. Jones et al., Anal. Biochem. 2005, 343, 66-75). The assay principle bases on the sEH-catalyzed hydrolysis of an artificial α-cyano-ester substrate. 0-deacetylation liberates a cyanohydrin intermediate that rapidly decomposes to the highly fluorescent 6-methoxy-2-naphtaldehyde. To discriminate sample autofluorescence, the assay was carried out as a kinetic measurement with two time points. The first measurement is performed immediately before addition of the substrate and the second measurement is done after completion of the assay. The assay format is either in 96- or in 384-well format. Details of the assay using a 96-well plate format are described below. 40 μL recombinant sEH enzyme and 5 μL test compound are pre-incubated for 15 minutes at 30° C. Following pre-incubation, the reaction is started by addition of 5 μL Phome. The assay mixture containing 2 nM final sEH concentration, test compound ranging in a concentration from 0.0001-10 μM and 5 μM Phome is incubated for 60 minutes at 30° C.
Fluorescence can be measured with any suitable detector for instance a TECAN Safire or Tecan Ultra at […]. % inhibition of recombinant sEH activity is used for calculation of corresponding IC50 values as illustrated and described in the examples.
The NCBI gene bank reference sequence with the accession number NM_001979 for EPHX2/sEH was applied for recombinant protein production:
The following commercially available materials have been used: • Incubation reagent: 25 mM Hepes (Sigma-Aldrich, Cat. No H-3375), 0.01% bovine albumin (Sigma-Aldrich Cat. No PA9205) • Substrate: 3-Phenyl-oxiranyl)-acetic acid cyano-(6-methoxy-naphtalen-2-yl)-methyl ester, Phome (Biozol Cat. No 10003134) • Microtiter plates: 96-well plates (Greiner Cat. No 655180; Costar Cat. No 3915)

| SMILES | IC50 |
| --- | --- |
| Cc1ncccc1O[C@H]1CO[C@H]2[C@@H]1OC[C@@H]2NC(=O)NC1CCCN(C(=O)OC(C)(C)C)C1 (stereo partly drawn) [Example 81, 3-{3-[(3S,3aR,6S,6aS)-6-(2-methyl-pyridin-3-yloxy)-hexahydro-furo[3,2-b]furan-3-yl]-ureido}-piperidine-1-carboxylic acid tert-butyl ester] | 0.016 µM |
| Cc1ncccc1O[C@H]1CO[C@H]2[C@@H]1OC[C@@H]2NC(=O)NC1(C)COC1 [Example 240, 1-(3-Methyl-oxetan-3-yl)-3-[(3S,3aR,6S,6aS)-6-(2-methyl-pyridin-3-yloxy)-hexahydro-furo[3,2-b]furan-3-yl]-urea] | 3.43 µM |
| O=C(NC1CCCCC1)N[C@H]1CO[C@H]2[C@@H]1OC[C@@H]2Oc1cccc(-n2cnnc2)c1 [Example 30, 1-Cyclohexyl-3-[(3S,3aR,6S,6aS)-6-(3-[1,2,4]triazol-4-yl-phenoxy)-hexahydro-furo[3,2-b]furan-3-yl]-urea] | 0.002 µM |
| CO[C@H]1COCC[C@H]1NC(=O)N[C@H]1CO[C@H]2[C@@H]1OC[C@@H]2Oc1cccnc1C [Example 93, (R)-1-((R)-3-methoxy-tetrahydro-pyran-4-yl)-3-[(3S,3aR,6S,6aS)-6-(2-methyl-pyridin-3-yloxy)-hexahydro-furo[3,2-b]furan-3-yl]-urea] | 0.032 µM |
| COC[C@@H](NC(=O)N[C@H]1CO[C@H]2[C@@H]1OC[C@@H]2Oc1cccnc1C)c1ccccc1 [Example 237, 1-((S)-2-Methoxy-1-phenyl-ethyl)-3-[(3S,3aR,6S,6aS)-6-(2-methyl-pyridin-3-yloxy)-hexahydro-furo[3,2-b]furan-3-yl]-urea] | 0.177 µM |
| O=C(NC1CCCCC1)N[C@H]1CO[C@H]2[C@@H]1OC[C@@H]2Oc1cc(F)cc(F)c1 [Example 133, 1-Cyclohexyl-3-[(3S,3aR,6S,6aS)-6-(3,5-difluoro-phenoxy)-hexahydro-furo[3,2-b]furan-3-yl]-urea] | < 0.001 µM |
| Cc1cc(Cl)ncc1O[C@H]1CO[C@H]2[C@@H]1OC[C@@H]2NC(=O)NC1CCCCC1 [Example 66, 1-[(3S,3aR,6S,6aS)-6-(6-Chloro-4-methyl-pyridin-3-yloxy)-hexahydro-furo[3,2-b]furan-3-yl]-3-cyclohexyl-urea] | 0.002 µM |
| Cc1cc(S[C@H]2CO[C@H]3[C@@H]2OC[C@@H]3NC(=O)NC2CCCCC2)nc(C)n1 [Example 61, 1-Cyclohexyl-3-[(3S,3aR,6S,6aS)-6-(2,6-dimethyl-pyrimidin-4-ylsulfanyl)-hexahydro-furo[3,2-b]furan-3-yl]-urea] | < 0.001 µM |
| Cc1ncccc1O[C@H]1CO[C@H]2[C@@H]1OC[C@@H]2NC(=O)NC(C)c1ccc(F)cc1 (stereo partly drawn) [Example 214, 1-[1-(4-Fluoro-phenyl)-ethyl]-3-[(3S,3aR,6S,6aS)-6-(2-methyl-pyridin-3-yloxy)-hexahydro-furo[3,2-b]furan-3-yl]-urea] | 0.014 µM |
| O=C(NC1CCOCC1)N[C@H]1CO[C@H]2[C@@H]1OC[C@@H]2Oc1ccc(F)cc1 [Example 170, 1-[(3S,3aR,6S,6aS)-6-(4-Fluoro-phenoxy)-hexahydro-furo[3,2-b]furan-3-yl]-3-(tetrahydro-pyran-4-yl)-urea] | 0.103 µM |
| O=C(NC1CCCCC1)N[C@H]1CO[C@H]2[C@@H]1OC[C@@H]2Oc1cccc(Cl)c1 [Example 132, 1-[(3S,3aR,6S,6aS)-6-(3-Chloro-phenoxy)-hexahydro-furo[3,2-b]furan-3-yl]-3-cyclohexyl-urea] | 0.002 µM |
| Cc1ncccc1O[C@H]1CO[C@H]2[C@@H]1OC[C@@H]2NC(=O)N[C@H]1C[C@H]2C[C@@H]([C@@H]1C)C2(C)C [Example 186, 1-[(3S,3aR,6S,6aS)-6-(2-Methyl-pyridin-3-yloxy)-hexahydro-furo[3,2-b]furan-3-yl]-3-((1S,2S,3S,5R)-2,6,6-trimethyl-bicyclo[3.1.1]hept-3-yl)-urea] | 0.002 µM |
| O=C(NC1CCCCC1)N[C@H]1CO[C@H]2[C@@H]1OC[C@@H]2Oc1ccccc1Cl [Example 98, 1-[(3S,3aR,6S,6aS)-6-(2-Chloro-phenoxy)-hexahydro-furo[3,2-b]furan-3-yl]-3-cyclohexyl-urea] | 0.002 µM |
| O=C(NC1CCCCC1)N[C@H]1CO[C@H]2[C@@H]1OC[C@@H]2Oc1ccc(-c2ccccc2)cc1 [Example 105, 1-[(3S,3aR,6S,6aS)-6-(Biphenyl-4-yloxy)-hexahydro-furo[3,2-b]furan-3-yl]-3-cyclohexyl-urea] | 0.007 µM |
| C[C@@H](NC(=O)N[C@H]1CO[C@H]2[C@@H]1OC[C@@H]2Oc1ccc(F)cc1)c1ccc(Cl)cc1 [Example 166, 1-[(R)-1-(4-Chloro-phenyl)-ethyl]-3-[(3S,3aR,6S,6aS)-6-(4-fluoro-phenoxy)-hexahydro-furo[3,2-b]furan-3-yl]-urea] | 0.018 µM |
| O=C(NC1CCC(F)(F)CC1)N[C@H]1CO[C@H]2[C@@H]1OC[C@@H]2Oc1ccc(F)cc1 [Example 77, 1-(4,4-difluoro-cyclohexyl)-3-[(3S,3aR,6S,6aS)-6-(4-fluoro-phenoxy)-hexahydro-furo[3,2-b]furan-3-yl]-urea] | 0.017 µM |
| O=C(NC1CCCCC1)N[C@H]1CO[C@H]2[C@@H]1OC[C@@H]2Oc1ccc(F)c(Br)c1 [Example 146, 1-[(3S,3aR,6S,6aS)-6-(3-Bromo-4-fluoro-phenoxy)-hexahydro-furo[3,2-b]furan-3-yl]-3-cyclohexyl-urea] | 0.002 µM |
| NC[C@H]1CO[C@H]2[C@@H]1OC[C@@H]2N(Cc1ccccc1)C(=O)NC1CCCCC1 [Example 7, 1-((3S,3aR,6S,6aR)-6-aminomethyl-hexahydro-furo[3,2-b]furan-3-yl)-1-benzyl-3-cyclohexyl-urea; trifluoroacetate] | 0.258 µM |

More lines, now with the values ahead:

| IC50 | SMILES |
| --- | --- |
| 0.016 µM | Cc1ncccc1O[C@H]1CO[C@H]2[C@@H]1OC[C@@H]2NC(=O)NC1CCC2(CC1)OCCO2 [Example 266, 1-(1,4-Dioxa-spiro[4.5]dec-8-yl)-3-[(3S,3aR,6S,6aS)-6-(2-methyl-pyridin-3-yloxy)-hexahydro-furo[3,2-b]furan-3-yl]-urea] |
| 0.011 µM | O=C(Nc1ccc(OC(F)(F)F)cc1)N[C@H]1CO[C@@H]2[C@@H](CCc3ccccc3)CO[C@@H]21 [Example 372, 1-((3S,3aR,6S,6aR)-6-Phenethyl-hexahydro-furo[3,2-b]furan-3-yl)-3-(4-trifluoromethoxy-phenyl)-urea] |
| 0.017 µM | O=C(Nc1ccc(C(F)(F)F)cc1)NC1COC2C(C=Cc3ccsc3)COC12 [Example 342, 1-[(3S,3aR,6S,6aR)-6-((Z)-2-Thio-phen-3-yl-vinyl)-hexahydro-furo[3,2-b]furan-3-yl]-3-(4-trifluoromethyl-phenyl)-urea] |
| 0.012 µM | O=C(Nc1ccc2c(c1)CCC2)N[C@H]1CO[C@@H]2[C@@H](CCc3ccsc3)CO[C@@H]21 [Example 367, 1-Indan-5-yl-3-[(3S,3aR,6S,6aR)-6-(2-thiophen-3-yl-ethyl)-hexahydro-furo[3,2-b]furan-3-yl]-urea] |
| 0.128 µM | O=C(NC1CCCCC1)N[C@H]1CO[C@@H]2[C@@H](CCc3ccc4c(c3)OCO4)CO[C@@H]21 [Example 347, 1-[(3S,3aR,6S,6aR)-6-(2-benzo[1,3]dioxol-5-yl-ethyl)-hexahydro-furo[3,2-b]furan-3-yl]-3-cyclohexyl-urea] |
| 0.056 µM | O=C(NCCc1cccs1)N[C@H]1CO[C@H]2[C@@H]1OC[C@@H]2C#Cc1ccsc1 [Example 313, 1-(2-Thiophen-2-yl-ethyl)-3-((3S,3aR,6S,6aR)-6-thiophen-3-ylethynyl-hexahydro-furo[3,2-b]furan-3-yl)-urea] |
| 0.024 µM | O=C(NCCc1ccccc1)N[C@H]1CO[C@@H]2[C@@H](CCc3ccccc3)CO[C@@H]21 [Example 371, 1-Phenethyl-3-((3S,3aR,6S,6aR)-6-phenethyl-hexahydro-furo[3,2-b]furan-3-yl)-urea] |
| 0.243 µM | Cc1cccc(CNC(=O)N[C@H]2CO[C@H]3[C@@H]2OC[C@@H]3C#Cc2ccsc2)c1 [Example 305, 1-(3-Methyl-benzyl)-3-((3S,3aR,6S,6aR)-6-thiophen-3-ylethynyl-hexahydro-furo[3,2-b]furan-3-yl)-urea] |
